In patent US6592834B1, “Calcium hydroxide, a process for the production thereof and use thereof” (Kabushiki Kaisha Kaisui Kagaku Kenkyujo, priority 1999, dated 2003):

Assay: Thermal stability test of polyvinyl chloride sheet in Geer oven at 185° C. (Example 7 composition)
Description: A heat stabilizer (acid-capturing agent) shown in Table 3 was mixed with the above components other than the heat stabilizer in the above amounts, and the mixture was uniformly mixed. Then, it was kneaded with an open roll for 3 minutes at 180° C., to prepare a sheet having a thickness of about 1 mm. The sheet was placed in a Geer oven set at 185° C., and it was estimated for a thermal stability. […] Concerning properties required for the heat stabilizer, the heat stabilizer was required to be nonpoisonous and a low price, to have good dispersibility, to be almost free from coloration, and to give a long period of time before blackening.
In Example 7, the calcium hydroxide of the present invention as a heat stabilizer was replaced with a calcium hydroxide obtained by surface-treating a commercially available calcium hydroxide used in Comparative Example 1 (5-1), lead stearate (5-2), and A type zeolite (5-3). These cases were estimated.

A type zeolite [5-3]
Thermal stability (period of time taken until the sheet was blackened): 40 min
